Reference: ChEMBL document CHEMBL3137667, “[Drug-induced liver injury; fourteenth updated edition of the bibliographic database of liver injuries and related drugs]” (Gastroenterol Clin Biol, 2004)
*1 amine or outer side, *2 acyl side, *3 side chain or, on linkers, in order; H or OH if unused. Where a SMILES comes first, the peptide text is derived from it. Bridges are numbered along the chain shown (N, C = ends). Roman numbers before positions name the chains, in order. [ ]: non-standard residue; d: D form. Actinocin(9to1) = Cc1c2oc3c(C)ccc(C(=O)[*:1])c3nc-2c(C(=O)[*:2])c(N)c1=O; NMeV = CN[C@H](C(=O)O)C(C)C; Sar = CNCC(=O)O

Columns and labels:
[1] = human
[2] = Highest frequency of moderate liver toxicity observed during clinical trials, expressed as a percentage. [column '% BIOL' in source]; settings: human
[3] = human; remark: listed apart in the source
[4] = human; remark: listed apart in the source
[5] = Times to onset, minimal and maximal, observed in the indexed observations. [column 'DELAI' in source]; settings: human
[6] = Comments (NB not yet translated). [column 'COMMENTAIRES' in source]; settings: human
[7] = human; remark: listed apart in the source
[8] = human, serum
[9] = Presence of at least one case with successful reintroduction. [column 'REINT' in source]; settings: human
[10] = human; remark: listed apart in the source
[11] = Highest frequency of acute liver toxicity observed during clinical trials, expressed as a percentage. [column '% AIGUE' in source]; settings: human
[12] = human; remark: listed apart in the source
[13] = human, serum, 4383 h
[14] = human, serum; remark: listed apart in the source
[15] = human; remark: listed apart in the source
[16] = Proposed mechanism(s) of liver damage. [column 'MEC' in source]; settings: human
[17] = human; remark: listed apart in the source
[18] = human; remark: listed apart in the source
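Throughout, for Hepatotoxicity (association with vascular disease): count of indexed literature references reporting vascular liver injury in humans, e.g. peliosis hepatitis, hepatic veno-occlusive disease or Budd-Chiari syndrome.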
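Throughout, for Hepatotoxicity (benign tumour): value is a count of indexed literature references citing a benign tumour confirmed by histopathology.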
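Throughout, for Hepatotoxicity (choleostasis): human cholestatic liver injury, shown by histopathology or by peak ALT or AST elevation over alkaline phosphatase ratio below 2, value counts indexed literature reports.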
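Throughout, for Hepatotoxicity (chronic liver disease): chronic liver injury confirmed by histopathology or persistently raised serum aminotransferase activity beyond 6 months, value given as the count of indexed literature references.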
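Throughout, for Hepatotoxicity (cirrhosis): value is a count of indexed literature references reporting cirrhosis confirmed by histopathology.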
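Throughout, for Hepatotoxicity (cytolytic): human cytolytic liver injury, shown by histopathology or by a ratio above 5 of peak ALT or AST elevation to alkaline phosphatase elevation, value counts indexed references.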
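Throughout, for Hepatotoxicity (granulomatous hepatitis): value is a count of indexed literature references reporting granulomatous liver disease confirmed by histopathology.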
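Throughout, for Hepatotoxicity (malignant tumour): malignant tumour confirmed by histopathology, value gives the count of indexed literature references reporting it.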
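Throughout, for Hepatotoxicity (severe hepatitis): human clinical data: severe hepatitis, meaning potentially life-threatening liver failure or clinically observed cases, the value counts how many indexed literature references report it.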
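Throughout, for Hepatotoxicity (steatosis): steatosis confirmed by histopathology, value is the count of indexed references.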

| Structure (SMILES) | Hepatotoxicity (granulomatous hepatitis) [1] | Hepatotoxicity (moderate) [2] [%] | Hepatotoxicity (severe hepatitis) [3] | Hepatotoxicity (cirrhosis) [4] | Hepatotoxicity (time to onset) [5] | Hepatotoxicity (comment) [6] | Hepatotoxicity (choleostasis) [7] | Hepatotoxicity (moderate) [8] | Hepatotoxicity (successful reintroduction) [9] | Hepatotoxicity (association with vascular disease) [10] | Hepatotoxicity (acute) [11] [%] | Hepatotoxicity (cytolytic) [12] | Hepatotoxicity (chronic liver disease) [13] | Hepatotoxicity (acute) [14] | Hepatotoxicity (steatosis) [15] | Hepatotoxicity (mechanism) [16] | Hepatotoxicity (benign tumour) [17] | Hepatotoxicity (malignant tumour) [18] | also measured |
| --- | --- | --- | --- | --- | --- | --- | --- | --- | --- | --- | --- | --- | --- | --- | --- | --- | --- | --- | --- |
| COc1ccc2c(C(=O)c3ccc(Cl)cc3)c(C)n(CC(=O)O)c2c1 [CLOMETACIN] | 0 | 0 | 9 | 9 | 1 week - 10 years | AC_ANTI-ADN/-ML HLAB8 | 12 | 6 | yes | 0 | 0 | 14 | 21 | 18 | 0 | Allergic | 0 | 0 | – |
| Nc1ccn([C@@H]2O[C@H](CO)[C@@H](O)[C@@H]2O)c(=O)n1 [CYTARABINE] | – | – | – | 0 | 1 cure - 2 cures | HCF HNR REACTIVATION_HVB MVO | – | 33 | yes | 7 | – | – | 0 | 14 | 0 | – | 0 | 0 | Hepatotoxicity (granulomatous hepatitis) ([1]; Liver): 0; Hepatotoxicity (moderate) ([2]; Liver): 75%; Hepatotoxicity (severe hepatitis) ([3]; Liver): 6; Hepatotoxicity (choleostasis) ([7]; Liver): 3; Hepatotoxicity (acute) ([11]; Liver): 28.6%; Hepatotoxicity (cytolytic) ([12]; Liver): 6; Hepatotoxicity (mechanism) ([16]; Liver): Dose-dependant |
| Cc1c2oc3c(C)ccc(C(=O)N[C@@H]4C(=O)N[C@H](C(C)C)C(=O)N5CCC[C@H]5C(=O)N(C)CC(=O)N(C)[C@@H](C(C)C)C(=O)O[C@@H]4C)c3nc-2c(C(=O)N[C@@H]2C(=O)N[C@H](C(C)C)C(=O)N3CCC[C@H]3C(=O)N(C)CC(=O)N(C)[C@@H](C(C)C)C(=O)O[C@@H]2C)c(N)c1=O [DACTINOMYCIN] (I: T[dV]P[Sar][NMeV] / II: T[dV]P[Sar][NMeV]; ester I:1-I:C, II:1-II:C; linker I:N-II:N via Actinocin(9to1)) | 0 | 12 | 6 | 0 | 3 weeks - 2 months | I/RADIOTHERAPIE HNR | 0 | 8 | yes | 16 | 8.8 | 5 | 1 | 7 | 0 | Dose-dependant | 1 | 0 | – |
| C#C[C@]1(O)CC[C@H]2[C@@H]3CCC4=Cc5oncc5C[C@]4(C)[C@H]3CC[C@@]21C [DANAZOL] | 0 | 42.1 | 2 | 0 | 3 days - 20 years | HNF | 8 | 32 | yes | 2 | 9.4 | 6 | 0 | 13 | 0 | Dose-dependant | 12 | 5 | – |
| Nc1ccc(S(=O)(=O)c2ccc(N)cc2)cc1 [DAPSONE] | – | – | – | 0 | 1 week - 1.5 years | DUCTOPENIE | – | 10 | yes | 0 | – | – | 0 | 33 | 0 | – | 0 | 0 | Hepatotoxicity (granulomatous hepatitis) ([1]; Liver): 3; Hepatotoxicity (moderate) ([2]; Liver): 20%; Hepatotoxicity (severe hepatitis) ([3]; Liver): 6; Hepatotoxicity (choleostasis) ([7]; Liver): 13; Hepatotoxicity (acute) ([11]; Liver): 5%; Hepatotoxicity (cytolytic) ([12]; Liver): 15; Hepatotoxicity (mechanism) ([16]; Liver): Allergic, Dose-dependant |
| CN1C(=O)CN=C(c2ccccc2)c2cc(Cl)ccc21 [DIAZEPAM] | 1 | 7.1 | 1 | 0 | 2 days - 9 years | AC_ANTI-N/-M #CBP | 9 | 1 | yes | 0 | 0 | 3 | 0 | 12 | 0 | Allergic | 0 | 0 | – |
| O=c1[nH]cnc2c1ncn2[C@H]1CC[C@@H](CO)O1 [DIDANOSINE] | 0 | 38.1 | 13 | 1 | 5 days - 8 years | REACTIVATION_HVB/HVC I/PARACETAMOL | 6 | 18 | yes | 0 | 12.5 | 21 | 1 | 27 | 20 | Dose-dependant, Mitochondrial toxicity | 0 | 0 | – |
| CCCCOCC(CN1C(=O)N(CC(COCCCC)OC(N)=O)C(=O)C(CC)(c2ccccc2)C1=O)OC(N)=O (stereo not drawn) [DIFEBARBAMATE] | 1 | 0 | 5 | 0 | 8 days - 15 months | AC_ANTI-N/-ML I/PAROXETINE | 1 | 2 | yes | 0 | 0 | 9 | 0 | 9 | 1 | Allergic | 0 | 0 | – |
| NNc1nnc(NN)c2ccccc12 [DIHYDRALAZINE] | 0 | 0 | 1 | 0 | 2 days - 3 years | AC_ANTI-MF/-M/-N/-CYP1A2 | 5 | 0 | yes | 0 | 0.1 | 17 | 4 | 21 | 1 | Allergic | 0 | 0 | – |
| COc1ccc([C@@H]2Sc3ccccc3N(CCN(C)C)C(=O)[C@@H]2OC(C)=O)cc1 [DILTIAZEM] | 2 | 6 | 1 | 0 | 1 day - 5 months | RC/AMLODIPINE | 5 | 20 | yes | 0 | 2.4 | 6 | 0 | 11 | 1 | Allergic | 0 | 0 | – |
| CN(C)CCC=C1c2ccccc2COc2ccccc21 [DOXEPIN] | 0 | 33.3 | 0 | 0 | 1 week | AC_ANTI-ML | 1 | 3 | yes | 0 | 0 | 2 | 0 | 2 | 0 | Allergic | 0 | 0 | – |
